Test results reported in PubChem BioAssay AID256 (DTP/NCI, 2004).
“And” between values parts separate entries of the source, which are not always exact repeats. Identical values can stand only once. Inconclusive results and toxic doses are left out. The calls were made as follows: active = survival T/C of 150% or more; inactive = T/C below 125% in these data. Starred links: 1 amine or outer side, 2 acyl side, 3 side chain; linkers in the order of their positions; H or OH if unused. Positions of bridges follow the written chain, without caps; N, C: chain ends. Non-standard residues stand in square brackets, D forms with d. Residues, ends and D or L forms follow the SMILES beside them. Chains are numbered I, II in the order given. Actinocin(1to9) = Cc1c2oc3c(C)ccc(C(=O)[*:2])c3nc-2c(C(=O)[*:1])c(N)c1=O; NMeV = CN[CH](C(=O)O)C(C)C; Sar = CNCC(=O)O

Tested on: CD2F1 mice, L1210 leukemia ip, survival T/C
Experiment: NCI In Vivo Anticancer Drug Screen. Data for tumor model L1210 Leukemia (intraperitoneal) in CD2F1 (CDF1) mice
Settings: endpoint: mean survival time, higher = longer survival
Method in brief: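 Ratio T/C, where T is the treated-group value and C the vehicle-dosed control value, from mice implanted with a transplantable tumor.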

[1] = dose: 100.0 mg/kg/injection, schedule: Q04DX003 (ip), vehicle: saline
[2] = dose: 200.0 mg/kg/injection, schedule: Q04DX003 (ip), vehicle: saline
[3] = dose: 400.0 mg/kg/injection, schedule: Q04DX003 (ip), vehicle: saline
[4] = dose: 100.0 mg/kg/injection, schedule: Q01DX001 (ip), vehicle: saline
[5] = dose: 200.0 mg/kg/injection, schedule: Q01DX001 (ip), vehicle: saline
[6] = dose: 400.0 mg/kg/injection, schedule: Q01DX001 (ip), vehicle: saline
[7] = dose: 50.0 mg/kg/injection, schedule: Q01DX009 (ip), vehicle: saline with Tween-80
[8] = dose: 100.0 mg/kg/injection, schedule: Q01DX009 (ip), vehicle: saline with Tween-80
[9] = dose: 100.0 mg/kg/injection, schedule: Q04DX003 (ip), vehicle: saline with Tween-80
[10] = dose: 200.0 mg/kg/injection, schedule: Q01DX009 (ip), vehicle: saline with Tween-80
[11] = dose: 100.0 mg/kg/injection, schedule: Q01DX001 (ip), vehicle: saline with Tween-80
[12] = dose: 200.0 mg/kg/injection, schedule: Q01DX001 (ip), vehicle: saline with Tween-80
[13] = dose: 400.0 mg/kg/injection, schedule: Q01DX001 (ip), vehicle: saline with Tween-80
[14] = dose: 200.0 mg/kg/injection, schedule: Q04DX003 (ip), vehicle: saline with Tween-80
[15] = dose: 400.0 mg/kg/injection, schedule: Q01DX009 (ip), vehicle: saline with Tween-80
[16] = dose: 400.0 mg/kg/injection, schedule: Q04DX003 (ip), vehicle: saline with Tween-80
[17] = dose: 100.0 mg/kg/injection, schedule: Q04DX002 (ip), vehicle: saline with Tween-80
[18] = dose: 200.0 mg/kg/injection, schedule: Q04DX002 (ip), vehicle: saline with Tween-80
[19] = dose: 400.0 mg/kg/injection, schedule: Q04DX002 (ip), vehicle: saline with Tween-80

Measured: T/C

O=C1OCCN1NCc1ccc(Cl)cc1
inactive: dose: 12.5 mg/kg/injection, schedule: Q01DX009 (ip), vehicle: DMSO 88 % of control | dose: 25.0 mg/kg/injection, schedule: Q01DX009 (ip), vehicle: DMSO 93 % of control | dose: 50.0 mg/kg/injection, schedule: Q01DX009 (ip), vehicle: DMSO 89 % of control and 91 % of control | dose: 100.0 mg/kg/injection, schedule: Q01DX009 (ip), vehicle: DMSO 96 % of control

COC(=O)CC(OC)OC
inactive: [1] 103 % of control | [2] 94 % of control | [3] 92 % of control

CCN1CC2CCC(C(=O)O)(C2)C1=O (stereo unspecified)
inactive: [4] 98 % of control | [5] 106 % of control | [6] 102 % of control

CC(=N)N(C)CC(=O)O
inactive: dose: 100.0 mg/kg/injection, schedule: Q04DX002 (ip), vehicle: saline 103 % of control | dose: 200.0 mg/kg/injection, schedule: Q04DX002 (ip), vehicle: saline 103 % of control | dose: 400.0 mg/kg/injection, schedule: Q04DX002 (ip), vehicle: saline 100 % of control

CC(=O)CC(C)(C)N
inactive: [7] 94 % of control | [8] 97 % of control | [9] 97 % of control | [10] 92 % of control

CCC(C)C1NC(=O)C(NC(=O)c2c3nc4c(C(=O)NC5C(=O)NC(C(C)CC)C(=O)N6CCCC6C(=O)N(C)CC(=O)N(C)C(C(C)C)C(=O)OC5C)ccc(C)c4oc-3c(C)c(=O)c2N)C(C)OC(=O)C(C(C)C)N(C)C(=O)CN(C)C(=O)C2CCCN2C1=O (stereo unspecified) (I: TIP[Sar][NMeV] / II: TIP[Sar][NMeV]; ester I:1-I:C, II:1-II:C; linker I:N-II:N via Actinocin(1to9); configuration not given here)
inactive: dose: 0.25 mg/kg/injection, schedule: Q01DX001 (ip), vehicle: saline 112 % of control | dose: 0.5 mg/kg/injection, schedule: Q01DX001 (ip), vehicle: saline 120 % of control

O=C(OCCOCCOC(=O)N1CCOCC1)N1CCOCC1
inactive: [1] 100 % of control | [2] 102 % of control | [3] 96 % of control

O=S(=O)(Cc1cc(-c2ccccc2)n[nH]1)c1ccccc1
inactive: [4] 96 % of control | [5] 95 % of control | [6] 98 % of control

CCC(=O)C(c1ccccc1)(c1ccccc1)c1ccccc1
inactive: dose: 25.0 mg/kg/injection, schedule: Q04DX002 (ip), vehicle: other 98 % of control | dose: 50.0 mg/kg/injection, schedule: Q04DX002 (ip), vehicle: other 95 % of control | dose: 100.0 mg/kg/injection, schedule: Q04DX002 (ip), vehicle: other 95 % of control

Oc1c(Cl)c(Cl)c(O)c(Cl)c1Cl
inactive: dose: 6.25 mg/kg/injection, schedule: Q01DX001 (ip), vehicle: saline with Tween-80 98 % of control | dose: 12.5 mg/kg/injection, schedule: Q01DX001 (ip), vehicle: saline with Tween-80 95 % of control | dose: 25.0 mg/kg/injection, schedule: Q01DX001 (ip), vehicle: saline with Tween-80 95 % of control

COS(=O)(=O)O
inactive: [1] 96 % of control | [2] 96 % of control

COC1OC(CCl)C(Cl)C(Cl)C1O (stereo unspecified)
inactive: [11] 102 % of control | [12] 96 % of control | [13] 102 % of control

CCc1ccc(OS(=O)(=O)c2cccc([N+](=O)[O-])c2)cc1
inactive: [8] 98 % of control | [9] 94 % of control | [10] 91 % of control | [14] 105 % of control | [15] 102 % of control | [16] 100 % of control

CSc1cccc(NC2=NCCO2)c1
inactive: [9] 90 % of control | [14] 93 % of control | [16] 86 % of control

CCC(=O)OC1=CC(=O)c2ccccc2C1=O
inactive: dose: 75.0 mg/kg/injection, schedule: Q01DX001 (ip), vehicle: saline 101 % of control | dose: 150.0 mg/kg/injection, schedule: Q01DX001 (ip), vehicle: saline 105 % of control

CN(C)S(=O)(=O)C=C(c1ccccc1)c1ccccc1
inactive: [9] 107 % of control | [14] 96 % of control | [16] 94 % of control

N#C/C(=C\C1CC(Br)CCC1O)C1CCC([N+](=O)[O-])CC1 (stereo unspecified)
inactive: [7] 86 % of control | [8] 88 % of control

CCCCCCCCCSCCS
inactive: [17] 96 % of control | [18] 89 % of control | [19] 100 % of control

CCCCCCCC(=O)Nc1ccccc1CC
inactive: [8] 94 % of control | [10] 100 % of control | [15] 102 % of control

O=C(/C=C/c1ccccc1)NC(=S)NCc1ccccc1Cl
inactive: [7] 95 % of control and 96 % of control | [11] 94 % of control | [17] 95 % of control and 110 % of control | [12] 92 % of control | [18] 90 % of control and 95 % of control | [13] 95 % of control | [19] 98 % of control and 101 % of control

O=S(=O)(/C=C\S(=O)(=O)c1ccccc1)c1ccccc1
inactive: dose: 12.5 mg/kg/injection, schedule: Q01DX009 (ip), vehicle: Klucel (hydroxypropylcellulose) (HPC) 98 % of control | dose: 25.0 mg/kg/injection, schedule: Q01DX009 (ip), vehicle: Klucel (hydroxypropylcellulose) (HPC) 95 % of control

CCc1ccccc1OCC1CO1 (stereo unspecified)
inactive: [4] 102 % of control | [5] 100 % of control | [6] 102 % of control

CN(C)C(=O)On1cccc1C#N
inactive: dose: 0.78 mg/kg/injection, schedule: Q01DX001 (ip), vehicle: saline 95 % of control | dose: 1.56 mg/kg/injection, schedule: Q01DX001 (ip), vehicle: saline 98 % of control | dose: 3.13 mg/kg/injection, schedule: Q01DX001 (ip), vehicle: saline 98 % of control

CCCCCCCC(=O)N1CCCN(C(=O)CCCCCCC)C1
inactive: dose: 25.0 mg/kg/injection, schedule: Q04DX003 (ip), vehicle: saline 94 % of control | dose: 50.0 mg/kg/injection, schedule: Q04DX003 (ip), vehicle: saline 95 % of control | [1] 97 % of control

Cc1c(OCc2ccccc2)cccc1[N+](=O)[O-]
inactive: dose: 100.0 mg/kg/injection, schedule: Q01DX009 (ip), vehicle: other 97 % of control | [9] 92 % of control | dose: 200.0 mg/kg/injection, schedule: Q01DX009 (ip), vehicle: other 105 % of control | [14] 87 % of control | dose: 400.0 mg/kg/injection, schedule: Q01DX009 (ip), vehicle: other 112 % of control | [16] 90 % of control

CCC(C)NC(=O)Nc1ccccc1C(F)(F)F (stereo unspecified)
inactive: [11] 106 % of control | [8] 92 % of control | [12] 95 % of control | [10] 88 % of control | [13] 89 % of control | [15] 94 % of control

OCC1OC(n2c(SCc3ccccc3)nc3ccccc32)C(O)C1O (stereo unspecified)
inactive: [4] 102 % of control | [5] 102 % of control | [6] 97 % of control

Cn1c(=O)c2c(nc(NCCCO)n2C)n(C)c1=O
inactive: dose: 12.5 mg/kg/injection, schedule: Q01DX005 (ip), vehicle: distilled water + Tween-80 100 % of control | dose: 25.0 mg/kg/injection, schedule: Q01DX005 (ip), vehicle: distilled water + Tween-80 94 % of control | dose: 50.0 mg/kg/injection, schedule: Q01DX005 (ip), vehicle: distilled water + Tween-80 94 % of control | dose: 100.0 mg/kg/injection, schedule: Q01DX005 (ip), vehicle: distilled water + Tween-80 94 % of control | dose: 200.0 mg/kg/injection, schedule: Q01DX005 (ip), vehicle: distilled water + Tween-80 98 % of control
